Consider 7 compounds from patent US8188141B2, “Isomigrastatin analogs in the treatment of cancer” (Sloan-Kettering Institute for Cancer Research, priority 2004, dated 2012).

Read-outs that look alike come from different tables or passages of the source.

Series [1] deals with Ovcar3 ovarian cancer cells. Nature of the series: Chamber cell migration (transwell) assay. The format is cell-based, human. The note with it: for IC50: OVCAR-3; for inhibiting the migration of human ovarian cancer cells in the transwell assay: Ovcar3. As to the method:
Cell migrations of Ovcar3 ovarian cancer cells were assayed with 8 μm of microporous 6.5-mm transwell plates (Corning). 100 wl of 5×10^4 cells in serum-free RPMI1640 medium containing 0.5% BSA were added to the upper chamber and 600 μl of medium with 10% fetal bovine serum was added to the lower chamber. Transwells were incubated for 12 hours with following concentrations of chemical compounds in both upper and lower chambers (1 nM, 10 nM, 100 nM 1 μM, 10 μM). Cells on the inside of the transwell inserts were removed with a cotton swab, and cells on the under side of the insert were fixed and stained. Photographs of three random regions were taken and the number of cells was counted to calculate the average number of cells that had transmigrated. Data shown is the average of at least three experiments.

The next series deals with Ovcar3 tumor cells. Nature of the series: Wound healing assay. The format is cell-based, human. The note with it: 250 nM. How it is done:
The tumor cells (Ovcar3) were seeded into 24-multiwell plates (Becton-Dickinson) and cultivated until the cells formed a confluent monolayer. Wounds were set by horizontally scratching the monolayer with a sterile pipette tip. The cells were thereafter washed twice with Phosphate Buffered Saline (PBS) to remove detached cells. Growth media was then added containing 250 nM of the chemical compounds (21, 22, and 30) and incubated at 37° C. The cells were photographed at the beginning of the experiment and after 24 to assess the progression of cell migration into the wound.

Series [2] has as its system human ovarian tumor cell line OVCAR3. Nature of the series: In vivo metastatic model (ovarian xenograph, luciferase tumor imaging). Conditions: treated mice. On the set-up: species or system mouse. From the text: The human ovarian tumor cell line OVCAR3 was transduced with a triple fusion gene HSV-TK/eGFP/FLuc, expressing thymidine kinase, enhanced green fluorescence protein and firefly luciferase. Whole animal imaging by luciferase bioluminescence (FIG. 5A), allowed identification and quantification of disseminated tumor. We quantified the tumor burden in each organ, by sacrificing the mouse shortly after luciferin injecting and imaging of the dissected organs (lung, liver and spleen) (FIG. 5B). In all instances tumor engraftment was initiated with 1−5×10^7 cells and the recipients received 3 Gy irradiation 10 days before tumor engraftment. These tumor cells generated bulky omental metastases with diffuse microscopic peritoneal carcinomatosis causing ascites (FIG. 5A) with, significant pleural effusion and liver, lung and paraaortic metastases (FIG. 6).

Series [3] has as its system human tumor cells. Conditions: Nakae et al., J. Antibiot., 2001; cited from earlier work.
For series [4], the system named is human tumor cells. Conditions: Nakae et al., J. Antibiot., 2001; cited from earlier work. This is another data set of the same source.
The nature of another series: Stability in mice plasma. The format is in vitro ADME.
[5] abbreviates: Homo sapiens, Ovcar3 cells, 12 hours, read-out: IC50, transwell assay.
[6] abbreviates: after 12h, human ovarian cancer cells, read-out: concentration at which 50% of the migration was inhibited in the transwell assay.

With `COCO[C@H]1[C@H](C)COC(=O)CCCC/C=C/[C@@H]1OC` [Compound 21], the figures for the IC50 in series [1] (setting [5]) and in series [1] (setting [6]) were 75 ± 6.5 nM and 75 nM, respectively. In series [1], the “inhibiting the migration of human ovarian cancer cells in the transwell assay” value is reported as “highly potent”. Also, the “closure of the scar in the wound healing assay” value in the series on Ovcar3 tumor cells was “inhibited the closure of the scar”.
For the compound `CO[C@H]1/C=C/CCCCC(=O)OC[C@@H](C)[C@@H]1O` [Compound 22], the IC50 in series [1] (setting [5]) amounted to 738 ± 267 nM.
Consider `CO[C@H]1/C=C/CC/C=C/COC[C@@H](C)[C@@H]1O` [Compound 30], for which the IC50 in series [1] (setting [5]) was 27 ± 5.8 nM; in series [1] (setting [6]), 27 nM. Further, the “inhibiting the migration of human ovarian cancer cells in the transwell assay” value in series [1] was “highly potent”. Moreover, the “tumor metastasis, Luciferase tumor imaging” value in series [2] is given as “significant inhibition of tumor metastasis”. Moreover, the “closure of the scar in the wound healing assay” value in the series on Ovcar3 tumor cells was “inhibited the closure of the scar”.
Regarding `CO[C@H]1/C=C/CC/C=C/C(=O)O[C@H]([C@H](C)C(=O)CCCC2CC(=O)NC(=O)C2)/C(C)=C\[C@@H](C)[C@@H]1O` [Migrastatin], the “migration of human tumor cells” value in the series on human tumor cells [3] is recorded as “inhibit”. Moreover, in the series on human tumor cells [4], the “anchorage-independent growth of human tumor cells” value was “inhibit”.
Consider `CO[C@H]1/C=C/CC/C=C/COC/C(C)=C\[C@@H](C)[C@@H]1O` [compound 57], for which the IC50 in series [1] (setting [5]) is 180 nM.
As to `CO[C@H]1/C=C/CCCCCOC/C(C)=C\[C@@H](C)[C@@H]1O` [compound 61], the “stability in mice plasma” value in the series “Stability in mice plasma” was “stable”.
As to `CO[C@H]1[C@H](C)/C=C(/C)COCCCCC/C=C/[C@@H]1OC` [compound 62], the IC50 in series [1] (setting [5]) came out at 180 nM.
